Assay results as given in patent US20170196893A1, “TREATMENT OF INFLAMMATORY DEMYELINATING DISEASE WITH AGONISTS OF FARNESOID X RECEPTOR” (The Board of Trustees of the Leland Stanford Junior …, priority 2016, published 2017).

Experiments:
Type in all cases: in vivo, mouse
[1] = system: splenocytes (CD4+ T cells, CD8+ T cells, CD19+ B cells); experiment: FACS analysis of splenocytes harvested from treated MOG35-55-immunized mice; conditions: eleven days oral dosing; for BTLA expression on CD4+ T cells: vehicle 2.87%; for PD1 expression on CD4+ T cells: vehicle 3.5%; for PD-L1 expression on CD4+ T cells: vehicle 8.32%; for BTLA expression on CD19+ B cells: vehicle 12.21%; for BTLA expression on CD8+ T cells: vehicle (WT) 0.78%; for PD1 expression on CD8+ T cells: vehicle (WT) 1.12%; for PD-L1 expression on CD8+ T cells: vehicle (WT) 5.63%; for CD3+CD8+ T cells: vehicle (WT) 6.75%; for CD3+CD4+ T cells: vehicle (WT) 8.34%; for PD1 expression on CD19+ B cells: vehicle (WT) 11.58%; for PD-L1 expression on CD19+ B cells: vehicle (WT) 12.21%; for CD19+B220+ B cells: vehicle (WT) 42.82%; for VLA-4 (CD29+CD49d+) expression on T cells: vehicle (WT) 44.12%; for VLA-4 (CD29+CD49d+) expression on B cells: vehicle (WT) 56.35%
Source text: Flow cytometry Cells were stained according to standard protocols, run on a FACScan flow cytometer (BD Biosciences), and analysed with CellQuest software (BD Immunocytometry Systems). The antibody conjugates used were PerCPCy5.5 anti-CD3, FITC anti-CD4, PE anti-CD8, PE anti-B220, PerCp-Cy5.5 anti-B220, FITC anti-CD19, PE anti-PD1, PE anti-PD-L1, PE anti-BTLA, PE anti-CD29, and FITC anti-CD49d (BD Pharmingen & eBioscience)

[2] = system: experimental autoimmune encephalomyelitis (EAE); experiment: Active EAE, clinical scores of mice with established EAE; conditions: 5 mg/kg daily oral, 6-ECDCA vs CDCA vs vehicle (FIG. 3B)
[3] = system: MOG35-55-specific lymphocytes; experiment: 72 h proliferation assay (3H-thymidine) of splenocytes/lymph node cells harvested from treated mice, restimulated with MOG35-55
Experimental: (§1) Proliferation and cytokine assays. Splenocytes and lymph nodes were harvested and stimulated with increasing concentrations of MOG35-55 for a total of 72 hours. For assessment of proliferation, 1 μCi of ^3H-thymidine was added to each well for the final 18-24 hours of culture, and incorporation of radioactivity was measured by using a Betaplate scintillation counter. Cytokine assays were performed on culture supernatants after 72 hours of culture by using the IL-2, IL-6, IFNgamma, and TNF BD OptEIA™ Mouse ELISA kits (BD Biosciences) or Mouse IL-17 DuoSet ELISA Development kit (R&D Systems).

splenocytes = experiment: Cytokine production (ELISA) by splenocytes harvested from treated mice, restimulated with MOG35-55; conditions: daily oral treatment of established EAE (FIG. 3D)
Experimental: as §1

[4] = Serum lipid panel analysis of treated MOG35-55-immunized mice fasted overnight; conditions: eleven days of oral dosing after EAE immunization, overnight fast (FIG. 4A)
Source text: Serum Lipid Panel Analysis. Serum from mice fasted overnight was submitted to the Diagnostic Laboratory at Stanford University, Department of Comparative Medicine for a full lipid panel analysis.

[5] = system: experimental autoimmune encephalomyelitis (EAE); experiment: Adoptive transfer EAE with cells of treated donor mice; conditions: donor mice treated eleven days, cells restimulated 72 h with MOG35-55 and rIL-12; vs vehicle treated donors (FIG. 4D)
Experimental: Mice and EAE Induction. C57BL/6J and FXRKO (B6.129x1(FVB)-Nr1h4tm1Gonz/J, #0007214) female mice were purchased from the Jackson Laboratory. Animal experiments were approved by, and performed in compliance with, the National Institute of Health guidelines of the Institutional Animal Care and Use Committee at Stanford University. For induction of active and adoptive transfer of EAE, 8- to 12-week-old female mice were immunized subcutaneously with 100 μg of MOG35-55 emulsified in complete Freund's adjuvant (CFA), consisting of incomplete Freund's Adjuvant and 0.4 mg of heat inactivated Mycobacterium tuberculosis, strain H37 RA (Difco Laboratories). On days 0 and 2, mice were also injected intravenously or intraperitoneally with 400 ng pertussis toxin in 0.2 ml 1×PBS. Adoptive transfer requires harvesting lymph nodes and spleens ten days after immunization. Combined lymphocytes and splenocytes are cultured in bulk, at 5×10^7 cells/ml for seventy-two hours in the presence of MOG35-55 (20 μg/ml) and rIL-12 (10 ng/ml, R&D systems). Cells are harvested and washed twice before transfer of 3×10^7 cells in 0.2 ml 1×PBS into naive 6-7 week old female mice, intraperitoneally. Clinical disease was monitored daily using the following scoring system: 0, no disease; 1, limp tail; 2, hind limb weakness; 3, hind limb paralysis; 4, hind limb and forelimb paralysis; 5, death.

## CC[C@H]1[C@@H](O)[C@@H]2[C@H](CC[C@]3(C)[C@@H]([C@H](C)CCC(=O)O)CC[C@@H]23)[C@@]2(C)CC[C@@H](O)C[C@@H]12 [6-ECDCA, 6α-Ethyl-chenodeoxycholic acid]
[1]
  BTLA expression on CD4+ T cells: 2.38%
  PD1 expression on CD4+ T cells: 2.74%
  PD-L1 expression on CD4+ T cells: 6.59%
  BTLA expression on CD19+ B cells: 6.23%
  BTLA expression on CD8+ T cells: 1.21%
  PD1 expression on CD8+ T cells: 1.82%
  PD-L1 expression on CD8+ T cells: 9.5%
  CD3+CD8+ T cells: 12.22%
  CD3+CD4+ T cells: 7.33%
  PD1 expression on CD19+ B cells: 12.3%
  PD-L1 expression on CD19+ B cells: 11.34%
  CD19+B220+ B cells: 30.69%
  VLA-4 (CD29+CD49d+) expression on T cells: 36.67%
  VLA-4 (CD29+CD49d+) expression on B cells: 51.98%

## C[C@H](CCC(=O)O)[C@H]1CC[C@H]2[C@@H]3[C@H](O)C[C@@H]4C[C@H](O)CC[C@]4(C)[C@H]3CC[C@]12C [CDCA, Chenodeoxycholic acid]
[2]
  Clinical EAE score (average EAE disease grade): clinical disease was ameliorated
[3]; daily oral treatment of established EAE (FIG. 3C)
  T cell recall responses to MOG35-55: significantly suppressed
[3]; eleven days of oral dosing, combined splenocytes and lymphocytes, vs vehicle (FIG. 4B)
  Recall responses of MOG35-55-specific lymphocytes (proliferation): greatly reduced
splenocytes
  IFN-gamma production: decreased
  IL-6 production: decreased
  IL-17 production: not significantly altered
  TNF production: decreased
[4]
  Serum HDL levels: decreased
  Serum cholesterol levels: decreased
  Serum low-density lipoprotein (LDL) levels: not significantly altered
  Serum triglycerides: not significantly altered
[1]
  BTLA expression on CD4+ T cells: 2.77%
  PD1 expression on CD4+ T cells: 2.64%
  PD-L1 expression on CD4+ T cells: 8.43%
  BTLA expression on CD19+ B cells: 6.76%
  BTLA expression on CD8+ T cells: 1.92%
  PD1 expression on CD8+ T cells: 1.63%
  PD-L1 expression on CD8+ T cells: 12.3%
  CD3+CD8+ T cells: 12.92%
  CD3+CD4+ T cells: 7.89%
  PD1 expression on CD19+ B cells: 9.58%
  PD-L1 expression on CD19+ B cells: 3.79%
  CD19+B220+ B cells: 36.07%
  VLA-4 (CD29+CD49d+) expression on T cells: 33.78%
  VLA-4 (CD29+CD49d+) expression on B cells: 49.16%
[5]
  Clinical EAE scores of naive recipient mice: significantly less severe disease
